# Results as given in patent publication US20230398049A1, “TETRAPEPTIDES, COMPOSITIONS COMPRISING THEM, AND THEIR COSMETIC USE” (Sederma, priority 2020, published 2023).
# Peptide text beside a SMILES is read from it. * marks the point of attachment. Palmitoyl = CCCCCCCCCCCCCCCC(=O)*
# Tests used:
# Format in all cases: cell-based
# [1] = tested on: Collagen I (PIP); experiment: ELISA assay of collagen I synthesis (PIP) by normal human fibroblasts; conditions: NHF, 72 h contact, ELISA on supernatant
# Procedure: (§1) Normal human fibroblasts (NHF) in culture are brought into contact with the products to be tested or their excipient (negative control) for 72 h. At the end of the contact, the culture supernatants are removed, and the syntheses of the dermal macromolecules are estimated by ELISA assays. An estimate of cell viability is carried out by Hoechst assay to weight the obtained data. Collagen I is evaluated via the PIP assay (carboxy-terminal propeptide of procollagen type I) which is a peptide fragment resulting from the enzymatic degradation of procollagen when the latter is excreted outside the fibroblast (therefore in the culture medium where the assay is carried out).
# [2] = tested on: Decorine; experiment: ELISA assay of decorin synthesis by normal human fibroblasts; conditions: NHF, 72 h contact, ELISA on supernatant
# Procedure: as §1
# [3] = tested on: SOD3; experiment: LC-MS/MS analysis of secretome and matrisome of human dermal fibroblasts: SOD3; conditions: HDF, seven days culture, pooled secretome and matrisome, n=3, 0.05<p<0.1
# Procedure: (§2) Protocol Human dermal fibroblasts (HDF) are cultured with or without the peptide according to the invention (control) in n=3. The cells are cultured normally for five days in serum supplemented medium, then for two additional days in serum-free medium (culture of seven days in total). The cellular medium (secretome) is collected and the matrix separated from the cells with EDTA. The secretome and matrisome are kept for LC-MS/MS analysis. The cells are saved for future analysis. The secretome and matrisome compartments are pooled and processed as single samples.
# (§3) Mass spectrometry is used to determine the total amount of certain proteins identified in the secretome and matrisome in the presence of the peptide of the invention and which are absent from the control following the day 7 of incubation. The proteins are denatured (in urea), reduced (in dithiothreitol) and mechanically dissociated (using ultrasound) prior to overnight digestion with the SMART Digest™ Trypsin Kit (Thermo Fisher).
# (§4) The samples are analyzed on an UltiMate® 3000 rapid separation liquid chromatograph coupled to a Q Exactive™ Quadrupole-Orbitrap™ hybrid mass spectrometer: 200 ng injected at an analysis time of 90 minutes per sample.
# (§5) Protein quantification is performed using Progenesis QI and protein identification using Mascot v2.5.1. Normalized protein concentrations are compared between the peptide and the control. […]
# [4] = tested on: Decorine; experiment: LC-MS/MS analysis of secretome and matrisome of human dermal fibroblasts: Decorine; conditions: HDF, seven days culture, pooled secretome and matrisome, n=3, 0.05<p<0.1
# Procedure: as §2, §3, §4, §5
# [5] = tested on: RAD23A; experiment: LC-MS/MS analysis of secretome and matrisome of human dermal fibroblasts: RAD23A; conditions: HDF, seven days culture, pooled secretome and matrisome, n=3, 0.05<p<0.1
# Procedure: as §2, §3, §4, §5
# [6] = tested on: Fibronectine; experiment: ELISA assay of fibronectin synthesis by normal human fibroblasts; conditions: NHF, 72 h contact, ELISA on supernatant
# Procedure: as §1
# [7] = tested on: Collagen IV; experiment: ELISA assay of collagen IV synthesis by normal human fibroblasts; conditions: NHF, 72 h contact, concentrations of 2 to 3 ppm, ELISA on supernatant
# Procedure: as §1
# [8] = tested on: Hyaluronic acid; experiment: ELISA assay of hyaluronic acid synthesis by normal human fibroblasts; conditions: NHF, 72 h contact, concentrations of 2 to 3 ppm, ELISA on supernatant
# Procedure: as §1
# [9] = tested on: Nidogen-1; experiment: LC-MS/MS analysis of secretome and matrisome of human dermal fibroblasts: Nidogen-1; conditions: HDF, seven days culture, pooled secretome and matrisome, n=3, p<0.05
# Procedure: as §2, §3, §4, §5
# [10] = tested on: Fibrillin 1; experiment: Immunofluorescence assay of Fibrillin 1 formation by normal human fibroblasts; conditions: NHF, five day incubation
# Procedure: Normal human fibroblasts (NHF) are cultured for at least 24 hours in fibroblast growth medium containing serum. Once confluence was reached, the cells are seeded and the actives and corresponding controls diluted in a culture medium are added. At the end of a five day incubation period, the supernatant is removed, the cells are washed with PBS and fixed. The cells are then incubated with the primary Fibrillin 1 monoclonal antibody (11C1.3) (Thermo Fisher) diluted in blocking buffer at a concentration of 1:200. The cells are incubated. The primary antibody is removed and the cells are washed with PBS. The secondary antibody was added at a dilution of 1:1000 in blocking buffer, then removed and the cells are washed with PBS. The formation of Fibrillin 1 by the cells is visualized using a fluorescence microscope. The obtained images are analyzed using an image processing software assigning a numerical value to the coverage density.
Compound,"Collagen I (PIP) synthesis, change vs excipient control ([1]; concentrations of 2 to 3 ppm)","Decorine synthesis, change vs excipient control ([2]; concentrations of 2 to 3 ppm)",SOD3 protein amount vs control [3],Decorine protein amount vs control [4],RAD23A protein amount vs control [5],"Fibronectine synthesis, change vs excipient control ([6]; concentrations of 2 to 3 ppm)","Collagen IV synthesis, change vs excipient control [7]","Hyaluronic acid synthesis, change vs excipient control [8]",Nidogen-1 protein amount vs control [9],"Fibrillin 1 formation (coverage density), change vs control ([10]; 4 ppm)","Collagen I (PIP) synthesis, change vs excipient control ([1]; concentrations of 5 to 15 ppm)","Decorine synthesis, change vs excipient control ([2]; concentrations of 5 to 15 ppm)","Fibronectine synthesis, change vs excipient control ([6]; concentrations of 5 to 15 ppm)","Fibrillin 1 formation (coverage density), change vs control ([10]; 10 ppm)"
"Pal-ELED-OH: N-palmitoylated tetrapeptide Glu-Leu-Glu-Asp, free C-terminal acid; ELED is a fragment of Biglycan (Palmitoyl-ELED-OH; SMILES CCCCCCCCCCCCCCCC(=O)N[C@@H](CCC(=O)O)C(=O)N[C@@H](CC(C)C)C(=O)N[C@@H](CCC(=O)O)C(=O)N[C@@H](CC(=O)O)C(=O)O)",+42%,+69%,stimulation,stimulation,stimulation,+70%,+42%,+28%,stimulation,+97% (p < 0.05),,,,
"CCCCCCCCCCCCCCCC(=O)N[C@@H](CC(C)C)C(=O)N[C@@H](CCCCN)C(=O)N[C@@H](CC(C)C)C(=O)N[C@@H](CCC(=O)O)C(=O)O [Pal-LKLE-OH, palmitoyl-leucyl-lysyl-leucyl-glutamic acid] (Palmitoyl-LKLE-OH)",,,,,,,,,,,+81%,+21%,+48%,+81% (p < 0.05)
